26 compounds from patent US9193721B2, “Fused derivatives as PI3Kδ inhibitors” (Incyte Holdings Corporation, priority 2010, dated 2015) can be followed below.

A word on the IC50: it is the point on the concentration scale where inhibition reaches its midpoint.

The test system of test [1] is Pfeiffer cell line (diffuse large B cell lymphoma). The test can be described thus: Pfeiffer cell proliferation assay. The format is cell-based. Particulars: Homo sapiens, [3H]-thymidine incorporation after 3-4 days plus 12 hours. The protocol:
Pfeiffer Cell Proliferation Assay
Pfeiffer cell line (diffuse large B cell lymphoma) was purchased from ATCC (Manassas, Va.) and maintained in the culture medium recommended (RPMI and 10% FBS). To measure the anti-proliferation activity of the compounds, the Pfeiffer cells were plated with the culture medium (2×10^3 cells/well/per 200 μl) into 96-well ultra-low binding plates (Corning, Corning, N.Y.), in the presence or absence of a concentration range of test compounds. After 3-4 days, [^3H]-thymidine (1 μCi/well) (PerkinElmer, Boston, Mass.) in PBS was then added to the cell culture for an additional 12 hours before the incorporated radioactivity was separated by filtration with water through GF/B filters (Packard Bioscience, Meridenj, Conn.) and measured by liquid scintillation counting with a TopCount (Packard Bioscience).

The target in a further test is T1, PI3Kδ (p110δ/p85α) (Homo sapiens, UniProt O00329).
T1 construct: purchased Millipore (Bedford, Mass.)
The test can be described thus: PI3Kδ scintillation proximity assay (assay A). Format: biochemical. Particulars: 20 μM PIP2, 20 μM ATP, 4 nM PI3Kδ, 210 minutes, room temperature. The method, then: PI3Kδ Scintillation Proximity Assay
[γ-33P] ATP (10 mCi/mL) was purchased from Perkin-Elmer (Waltham, Mass.). […] PI3Kδ (p110δ/p85α) was purchased from Millipore (Bedford, Mass.). ATP, MgCl2, DTT, EDTA, MOPS and CHAPS were purchased from Sigma-Aldrich (St. Louis, Mo.). Wheat Germ Agglutinin (WGA) YSi SPA Scintillation Beads was purchased from GE healthcare life sciences (Piscataway, N.J.).
The kinase reaction was conducted in polystyrene 384-well matrix white plate from Thermo Fisher Scientific in a final volume of 25 μL. Inhibitors were first diluted serially in DMSO and added to the plate wells before the addition of other reaction components. The final concentration of DMSO in the assay was 0.5%. The PI3K assays were carried out at room temperature in 20 mM MOPS, pH 6.7, 10 mM MgCl2, 5 mM DTT and CHAPS 0.03%. Reactions were initiated by the addition of ATP, the final reaction mixture consisted of 20 μM PIP2, 20 μM ATP, 0.2 μCi [γ-^33P] ATP, 4 nM PI3Kδ. Reactions were incubated for 210 minutes and terminated by the addition of 40 μL SPA beads suspended in quench buffer: 150 mM potassium phosphate pH 8.0, 20% glycerol. 25 mM EDTA, 400 μM ATP. The final concentration of SPA beads is 1.0 mg/mL. After the plate sealing, plates were shaken overnight at room temperature and centrifuged at 1800 rpm for 10 minutes, the radioactivity of the product was determined by scintillation counting on Topcount (Perkin-Elmer). IC50 determination was performed by fitting the curve of percent control activity versus the log of the inhibitor concentration using the GraphPad Prism 3.0 software.
On the technique in general: In a scintillation proximity assay essentially only radioactivity close to the scintillant gives light.

T1 sequence (O00329 whole entry): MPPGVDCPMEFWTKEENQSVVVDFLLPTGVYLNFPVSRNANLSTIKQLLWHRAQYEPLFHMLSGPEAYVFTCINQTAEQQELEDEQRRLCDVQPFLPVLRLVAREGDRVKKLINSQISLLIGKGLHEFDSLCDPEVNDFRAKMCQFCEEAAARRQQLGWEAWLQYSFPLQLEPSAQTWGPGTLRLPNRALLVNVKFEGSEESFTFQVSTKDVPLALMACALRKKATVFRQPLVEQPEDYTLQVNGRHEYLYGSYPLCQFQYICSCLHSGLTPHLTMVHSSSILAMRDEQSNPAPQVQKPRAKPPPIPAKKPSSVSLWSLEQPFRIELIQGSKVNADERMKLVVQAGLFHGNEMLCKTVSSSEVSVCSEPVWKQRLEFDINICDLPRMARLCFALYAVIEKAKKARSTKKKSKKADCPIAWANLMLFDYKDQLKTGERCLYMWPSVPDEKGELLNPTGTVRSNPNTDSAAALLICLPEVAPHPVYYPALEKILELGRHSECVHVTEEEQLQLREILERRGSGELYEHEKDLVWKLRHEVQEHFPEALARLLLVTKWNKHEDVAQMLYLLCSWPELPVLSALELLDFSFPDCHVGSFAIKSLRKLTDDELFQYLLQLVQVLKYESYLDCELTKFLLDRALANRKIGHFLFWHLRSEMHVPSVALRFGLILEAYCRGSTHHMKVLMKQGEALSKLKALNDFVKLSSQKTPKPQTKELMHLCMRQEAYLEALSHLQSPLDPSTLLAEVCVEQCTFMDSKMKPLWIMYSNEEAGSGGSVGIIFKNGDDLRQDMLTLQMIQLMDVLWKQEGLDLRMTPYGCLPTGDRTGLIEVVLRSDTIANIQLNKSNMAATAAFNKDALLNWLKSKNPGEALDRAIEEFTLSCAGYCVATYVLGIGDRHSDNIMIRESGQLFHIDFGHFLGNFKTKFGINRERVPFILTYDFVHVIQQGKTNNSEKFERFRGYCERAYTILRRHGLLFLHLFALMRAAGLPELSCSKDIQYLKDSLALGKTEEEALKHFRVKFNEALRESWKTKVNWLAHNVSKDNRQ
T1 sequence (P27986 whole entry partner): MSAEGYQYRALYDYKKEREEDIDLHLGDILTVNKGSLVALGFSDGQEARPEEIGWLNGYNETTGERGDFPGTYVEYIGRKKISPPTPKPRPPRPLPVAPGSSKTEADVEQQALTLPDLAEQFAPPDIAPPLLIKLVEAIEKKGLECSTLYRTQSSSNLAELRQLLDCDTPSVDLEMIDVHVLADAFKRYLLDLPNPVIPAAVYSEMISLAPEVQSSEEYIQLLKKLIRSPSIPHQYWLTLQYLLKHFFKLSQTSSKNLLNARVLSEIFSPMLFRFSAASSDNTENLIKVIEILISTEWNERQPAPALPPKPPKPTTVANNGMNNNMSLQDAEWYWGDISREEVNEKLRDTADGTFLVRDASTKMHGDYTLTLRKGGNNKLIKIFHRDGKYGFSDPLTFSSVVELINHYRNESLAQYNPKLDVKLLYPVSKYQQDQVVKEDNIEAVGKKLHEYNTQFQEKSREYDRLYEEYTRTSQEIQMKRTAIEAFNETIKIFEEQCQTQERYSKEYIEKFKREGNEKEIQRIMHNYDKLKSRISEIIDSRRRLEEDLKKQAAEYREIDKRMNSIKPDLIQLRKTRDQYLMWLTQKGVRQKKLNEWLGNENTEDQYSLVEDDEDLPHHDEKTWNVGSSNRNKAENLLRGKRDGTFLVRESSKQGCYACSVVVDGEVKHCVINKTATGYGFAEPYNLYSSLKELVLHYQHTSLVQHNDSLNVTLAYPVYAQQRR

`CC(Nc1ncnc2[nH]cnc12)c1cc(F)c2cncn2c1-c1cccc(F)c1` (centres unmarked) [Example 29, N-{1-[8-Fluoro-5-(3-fluorophenyl)imidazo[1,5-a]pyridin-6-yl]ethyl}-9H-purin-6-amine]: the IC50 in test [1] was 500 to 1000 nM; against PI3Kδ (p110δ/p85α) it was < 50 nM.
As for `Cc1ncc2c(Cl)cc(C(C)Nc3ncnc4[nH]cnc34)c(-c3cc(F)cc(F)c3)n12` (centres unmarked) [Example 19, N-{1-[8-Chloro-5-(3,5-difluorophenyl)-3-methylimidazo[1,5-a]pyridin-6-yl]ethyl}-9H-purin-6-amine], the IC50 in test [1] was ≤ 100 nM; at PI3Kδ (p110δ/p85α), < 50 nM.
The like results for `CC(=O)N1CCN(c2c(C(C)Nc3ncnc4[nH]cnc34)cc(C)c3cncn23)CC1` (centres unmarked) [Example 32, N-{1-[5-(4-Acetylpiperazin-1-yl)-8-methylimidazo[1,5-a]pyridin-6-yl]ethyl}-9H-purin-6-amine bis(trifluoroacetate)] were, in that order, > 3000 nM and < 50 nM.
Taken in the same sequence, the figures for `CC(Nc1ncnc2[nH]cnc12)c1cc(Cl)c2cncn2c1N1CCN(C(=O)OC(C)(C)C)CC1` (centres unmarked) [Example 6, tert-Butyl 4-{8-chloro-6-[1-(9H-purin-6-ylamino)ethyl]imidazo[1,5-a]pyridin-5-yl}piperazine-1-carboxylate] were > 3000 nM and 50 to 200 nM.
`CC(Nc1ncnc2[nH]cnc12)c1cc(Cl)c2cncn2c1N1CC[C@@H](O)C1` (stereo partly drawn) [Example 23, (3R)-1-{8-Chloro-6-[1-(9H-purin-6-ylamino)ethyl]imidazo[1,5-a]pyridin-5-yl}pyrrolidin-3-ol]: the IC50 in test [1] is ≤ 100 nM; against PI3Kδ (p110δ/p85α), 50 to 200 nM.
Taken in the same sequence, the figures for `CC(Nc1ncnc2[nH]cnc12)c1cc(Cl)c2cncn2c1-c1cccc(F)c1` (single isomer, unassigned) [1, isomer 1] were ≤ 100 nM and < 50 nM.
`CC(Nc1ncnc2[nH]cnc12)c1cc(Cl)c2cncn2c1N1CCN(C(=O)CC#N)CC1` (centres unmarked) [Example 10, 3-(4-{8-Chloro-6-[1-(9H-purin-6-ylamino)ethyl]imidazo[1,5-a]pyridin-5-yl}piperazin-1-yl)-3-oxopropanenitrile]: the IC50 was > 3000 nM in test [1] and < 50 nM at PI3Kδ (p110δ/p85α).
The like results for `CCN(CC)c1c(C(C)Nc2ncnc3[nH]cnc23)cc(Cl)c2cnc(C)n12` (centres unmarked) [Example 25, N-{1-[8-Chloro-5-(diethylamino)-3-methylimidazo[1,5-a]pyridin-6-yl]ethyl}-9H-purin-6-amine] were, in that order, 500 to 1000 nM and < 50 nM.
The like results for `CC(Nc1ncnc2[nH]cnc12)c1cc(Cl)c2ccnn2c1-c1cccc(F)c1` (centres unmarked) [Example 26, N-{1-[4-chloro-7-(3-fluorophenyl)pyrazolo[1,5-a]pyridin-6-yl]ethyl}-9H-purin-6-amine] were, in that order, ≤ 100 nM and < 50 nM.
With `CCC(Nc1ncnc2[nH]cnc12)c1cc(Cl)c2cnc(C)n2c1-c1cc(F)cc(F)c1` (centres unmarked) [Example 20, N-{1-[8-Chloro-5-(3,5-difluorophenyl)-3-methylimidazo[1,5-a]pyridin-6-yl]propyl}-9H-purin-6-amine], the IC50 was 100 to 500 nM in test [1] and < 50 nM at PI3Kδ (p110δ/p85α).
At PI3Kδ (p110δ/p85α), `CC(Nc1ncnc2[nH]cnc12)c1cc(Cl)c2cncn2c1-c1cccc(F)c1` (single isomer, unassigned) [1, isomer 2] gave an IC50 of 50 to 200 nM.
Regarding `CC(Nc1ncnc2[nH]cnc12)c1cc(Cl)c2cncn2c1-c1cccc(F)c1` (racemic) [Example 1, N-{1-[8-Chloro-5-(3-fluorophenyl)imidazo[1,5-a]pyridin-6-yl]ethyl}-9H-purin-6-amine], the IC50 in test [1] was ≤ 100 nM; against PI3Kδ (p110δ/p85α) it was < 50 nM.
Take `CC(Nc1ncnc2[nH]cnc12)c1cc(Cl)c2cncn2c1N1CCN(CC#N)CC1` (centres unmarked) [Example 13, (4-{8-Chloro-6-[1-(9H-purin-6-ylamino)ethyl]imidazo[1,5-a]pyridin-5-yl}piperazin-1-yl)acetonitrile]: the IC50 was 500 to 1000 nM in test [1] and 50 to 200 nM on PI3Kδ (p110δ/p85α).
With `CCC(Nc1ncnc2[nH]cnc12)c1cc(Cl)c2cncn2c1-c1cccc(F)c1` (centres unmarked) [Example 18, N-{1-[8-Chloro-5-(3-fluorophenyl)imidazo[1,5-a]pyridin-6-yl]propyl}-9H-purin-6-amine], the IC50 in test [1] is 100 to 500 nM; on PI3Kδ (p110δ/p85α), < 50 nM.
Take `CO[C@H]1CCN(c2c(C(C)Nc3ncnc4[nH]cnc34)cc(Cl)c3cncn23)C1` (stereo partly drawn) [Example 22, N-(1-{8-Chloro-5-[(3S)-3-methoxypyrrolidin-1-yl]imidazo[1,5-a]pyridin-6-yl}ethyl)-9H-purin-6-amine]: the concentration for half-maximal inhibition (IC50) was ≤ 100 nM in test [1] and < 50 nM on PI3Kδ (p110δ/p85α).
For `CC(Nc1ncnc2[nH]cnc12)c1cc(Cl)c2cncn2c1N1CCN(C(=O)C2CC2)CC1` (centres unmarked) [Example 7, N-(1-{8-Chloro-5-[4-(cyclopropylcarbonyl)piperazin-1-yl]imidazo[1,5-a]pyridin-6-yl}ethyl)-9H-purin-6-amine], the IC50 is 100 to 500 nM in test [1] and < 50 nM against PI3Kδ (p110δ/p85α).
Taken in the same sequence, the figures for `CC(Nc1ncnc2[nH]cnc12)c1cc(F)c2ccnn2c1-c1cccc(F)c1` (centres unmarked) [Example 27, N-{1-[4-fluoro-7-(3-fluorophenyl)pyrazolo[1,5-a]pyridin-6-yl]ethyl}-9H-purin-6-amine] were ≤ 100 nM and < 50 nM.
As to `CC(Nc1ncnc2[nH]cnc12)c1cc(Cl)c2cncn2c1N1CCN(CC2CCCO2)CC1` (centres unmarked) [Example 16, N-(1-{8-Chloro-5-[4-(tetrahydrofuran-2-ylmethyl)piperazin-1-yl]imidazo[1,5-a]pyridin-6-yl}ethyl)-9H-purin-6-amine], the figures for the IC50 (in test [1]; on PI3Kδ (p110δ/p85α)) were 100 to 500 nM and 200 to 750 nM, respectively.
As for `CC(Nc1ncnc2[nH]cnc12)c1cc(Cl)c2cncn2c1N1CCN(S(C)(=O)=O)CC1` (centres unmarked) [Example 5, N-(1-{8-chloro-5-[4-(methylsulfonyl)piperazin-1-yl]imidazo[1,5-a]pyridin-6-yl}ethyl)-9H-purin-6-amine], the IC50 in test [1] is > 3000 nM; against PI3Kδ (p110δ/p85α) it was 50 to 200 nM.
The like results for `COCCN1CCN(c2c(C(C)Nc3ncnc4[nH]cnc34)cc(Cl)c3cncn23)CC1` (centres unmarked) [Example 12, N-(1-{8-Chloro-5-[4-(2-methoxyethyl)piperazin-1-yl]imidazo[1,5-a]pyridin-6-yl}ethyl)-9H-purin-6-amine] were, in that order, 100 to 500 nM and 200 to 750 nM.
The like results for `CC(=O)N1CCN(c2c(C(C)Nc3ncnc4[nH]cnc34)cc(C#N)c3cncn23)CC1` (centres unmarked) [Example 31, 5-(4-Acetylpiperazin-1-yl)-6-[1-(9H-purin-6-ylamino)ethyl]imidazo[1,5-a]pyridine-8-carbonitrile bis(trifluoroacetate)] were, in that order, > 3000 nM and 200 to 750 nM.
Regarding `Cc1ncc2c(Cl)cc(C(C)Nc3ncnc4[nH]cnc34)c(-c3cccc(F)c3)n12` (racemic) [Example 2, N-{1-[8-Chloro-5-(3-fluorophenyl)-3-methylimidazo[1,5-a]pyridin-6-yl]ethyl}-9H-purin-6-amine], the IC50 at PI3Kδ (p110δ/p85α) was < 50 nM.
Take `CC(Nc1ncnc2[nH]cnc12)c1cc(Cl)c2cncn2c1N1CC[C@H](O)C1` (stereo partly drawn) [Example 24, (3S)-1-{8-Chloro-6-[1-(9H-purin-6-ylamino)ethyl]imidazo[1,5-a]pyridin-5-yl}pyrrolidin-3-ol]: the results for the half-inhibitory concentration (IC50) (in test [1]; against PI3Kδ (p110δ/p85α)) were ≤ 100 nM and < 50 nM, respectively.
Regarding `CC(Nc1ncnc2[nH]cnc12)c1cc(Cl)c2cncn2c1N1CCN(C(=O)c2cnn(C)c2)CC1` (centres unmarked) [Example 11, N-[1-(8-Chloro-5-{4-[(1-methyl-1H-pyrazol-4-yl)carbonyl]piperazin-1-yl}imidazo[1,5-a]pyridin-6-yl)ethyl]-9H-purin-6-amine], the IC50 is > 3000 nM in test [1] and < 50 nM at PI3Kδ (p110δ/p85α).
Taken in the same sequence, the figures for `COc1cccc(-c2c(C(C)Nc3ncnc4[nH]cnc34)cc(Cl)c3ccnn23)c1` (centres unmarked) [Example 28, N-{1-[4-chloro-7-(3-methoxyphenyl)pyrazolo[1,5-a]pyridin-6-yl]ethyl}-9H-purin-6-amine] were ≤ 100 nM and < 50 nM.
Consider `CC(=O)N1CCN(c2c(C(C)Nc3ncnc4[nH]cnc34)cc(Br)c3cncn23)CC1` (centres unmarked) [Example 30, N-{1-[5-(4-Acetylpiperazin-1-yl)-8-bromoimidazo[1,5-a]pyridin-6-yl]ethyl}-9H-purin-6-amine bis(trifluoroacetate)], for which the IC50 in test [1] is 100 to 500 nM; against PI3Kδ (p110δ/p85α), < 50 nM.
